Measurements published in patent publication US20240018129A1, “COMPOUNDS AS PU. 1 INHIBITORS” (PEKING UNIVERSITY, priority 2020, published 2024).

How the values were obtained:
[1] = tested on: bleomycin-induced pulmonary fibrosis; test: bleomycin-induced pulmonary fibrosis, preventive and therapeutic models; format: in vivo, mouse
Protocol: Methods: To evaluate the preventive and therapeutic effects of compound I-1 on pulmonary fibrosis, bleomycin was used to establish two animal models of pulmonary fibrosis with different drug intervention (6-8 weeks, C57BL/6, male). Bleomycin (0.025U, Code.D11063, OKA, China) was injected by a single intratracheal application. Equal volumes of sterilized saline served as a control. (I) Preventive model of bleomycin-induced pulmonary fibrosis. Compounds compound I-1, positive control DB1976, or vehicle (saline) were treated (injected intraperitoneally, i.p.) immediately after single bleomycin injection for 4 weeks (FIG. 4a). (II) Therapeutic model of bleomycin-induced pulmonary fibrosis. Mice were pre-charged with bleomycin for 11 days to induced pulmonary fibrosis, then treated with compounds compound I-1, positive control DB1976, or vehicle (saline) for 17 days, total time is 4 weeks after bleomycin treatment (FIG. 4h). After the last day of treatment of both models, mice were fasted overnight and euthanized. A part of lung was fixed with paraformaldehyde, embedded with paraffin, and then sliced for H&E and Sirius red staining to check pathological features, and Ashcroft scores. Hubner, R. H. et al. Biotechniques 44, 507-511, 514-507, doi:10.2144/000112729 (2008). Another part of lung were collected and stored in −80° C. after liquid nitrogen quick-freezing, RNA isolation (Code.R6934, OMEGA, USA), first cDNA reverse (Code.AT341, TransGen, China), SYBR mix (Code.AQ601, TransGen, China) for Q-PCR (LightCycle96, Roche) to verify several fibrosis-related genes mRNA level, such as, Col1a1 and Col1a2.

[2] = tested on: HFD/CCL4-induced NASH and liver fibrosis; test: High-fat diet (HFD) combined with CCl4 (lower dose)-induced NASH model; format: in vivo, mouse
Description: Methods: To evaluate the potential therapeutic effects of compound I-1 on liver disorders, including liver fat steatosis and accumulation, nonalcoholic fatty liver disease (NAFLD), nonalcoholic steatosis hepatitis (NASH), and liver fibrosis, three mice models (C57BL/6, male, 8 weeks old) were used. (I) NASH diet (Code.TD.160785, ENVIGO, USA)-induced NASH model: All mice were fed with NASH diet for 10 weeks. Mice were then randomly distributed into three groups, and each group was assigned to be injected daily with vehicle, compound I-1 (2.5mpk or 5mpk, i.p.), or DB1976 (2.5mpk, i.p, as a positive control) for another 6 weeks on continuous NASH diet. A group with normal regular diet was treated with vehicle as health control. (II) High-fat diet (HFD) combinate with CCl4 (lower dose)—induced NASH model. Mice were fed with normal regular diet or HFD (kcal fat 60%—D12492, research diets) for 10 weeks, then the HFD mice were divided into two groups randomly based on the rule of minimum weight differences. Each group was assigned to be injected with CCl4 (25% v/v in olive oil, 0.5 mL/kg body weight) or pure olive oil (i.p.) twice a week for 4 weeks. Compound 1-1 or vehicle (saline) were injected (i.p.) once daily for 4 weeks at the same time with CCl4 under continuous HFD. (III) CCl4 (higher dose)—induced liver fibrosis model. Liver fibrosis was induced by CCl4 injection (20% v/v in olive oil, 10 mL/kg body weight) twice a week for 6 weeks, compound I-1 or vehicle are also injected (i.p.) once daily for 6 weeks at the same time with CCl4 application. Ail the mice in the above-mentioned three models were observed daily. After the last day of treatment of all the models, mice were fasted overnight and euthanized. Serum was collected after centrifuging of the whole blood at 4 degrees, and blood biochemistry parameters were tested through automatic biochemical instrument (BS-240VET, Mindray). Part of liver tissues were fixed with paraformaldehyde, embedded with paraffin, and then sliced for H&E or Sirius red staining to check pathological features, and NAFLD scores. Kleiner, D. E. et al. Hepatology 41, 1313-1321, doi:10.1002/hep.20701 (2005). Part of liver tissues were used fresh, embedded in optimum cutting temperature compound, and sectioned. The sections were stained with 0.5% oil red 0 according to standard procedures after fixed in 4% paraformaldehyde in PBS. Another part of liver tissues were collected and stored in −80° C. after liquid nitrogen quick-freezing, RNA. isolation (Code.R6934, OMEGA., USA), first cDNA reverse (Code.AT341, TransGen, China), SYBR mix (Code.AQ601, TransGen, China) for Q-PCR (LightCycler®96, Roche) to verify genes mRNA level, such as, fibrosis-related genes, Col1a1 and Col1a2; inflammation-related genes, IL-6 and IL-1β.

`N=C(N)c1ccc2nc(-c3ccc(NC(=O)[C@@H]4CCCN4C(=O)[C@@H]4CCCN4C(=O)c4ccc(-c5nc6ccc(C(=N)N)cc6[nH]5)cc4)cc3)[nH]c2c1` [Compound I-1, (S)-1-((4-(6-carbamimidoyl-1H-benzo[d]imidazol-2-yl)benzoyl)-L-prolyl)-N-(4-(6-carbamimidoyl-1H-benzo[d]imidazol-2-yl)phenyl)pyrrolidine-2-carboxamide] was tested, and the “pulmonary fibrosis progress (staining, Ashcroft scores, collagen deposition, Col1a1, Col1a2 mRNA)” value ([1]; preventive model, 5mpk i.p. for 4 weeks after single bleomycin injection) was “significantly prevented”, the bleomycin-induced pulmonary fibrosis ([1]; therapeutic model, 11 days after bleomycin then 17 days treatment, 5mpk) was “reversed and impede” and the “level of serum ALT” value ([2]; fasting serum) was “tendency to reduce”. For the same molecule, the “serum triglyceride (TG) and total-cholesterol (TC)” value ([2]; fasting serum, i.p. once daily for 4 weeks) was “reduced”, the “body weight, gWAT and iWAT weight radio increased by HFD/CCL4” value ([2]; i.p. once daily for 4 weeks with CCl4 under HFD) was “reversed” and the “reducing fat accumulation (H&E staining, liver steatosis score)” value ([2]; liver) was “not efficacious”. The “reducing inflammatory response (inflammatory infiltrates, inflammation score, liver mRNA of IL-1β and IL-6)” value ([2]; liver) was “efficacious”, the “collagen deposition (sirius red staining) and liver mRNA level of Col1a1 and Col1a2” value ([2]; mouse, in vivo) was “reduced” and the “hepatotoxicity under its effective concentration” value ([2]; mouse, in vivo) was “not hepatotoxic”. For the same molecule, the “liver fibrosis induced by HFD/CCL4 application” value ([2]; mouse, in vivo) was “significantly alleviated”.
